Experimental data from article PMC10454913, “Neurohypophysial and paracrine vasopressinergic signaling regulates aquaporin trafficking to hydrate marine teleost oocytes” (Frontiers in Endocrinology, 2023).
Ends that are not written are not given here.

How the values were obtained:
[1] = system: seabream postvitellogenic ovarian explants; assay: Avp production by ovarian explants in vitro (Avp ELISA); assay type: cell-based, gilthead seabream (Sparus aurata)
Text: These observations would be compatible with a role of Avp regulating the intracellular trafficking of Aqp1ab1 and Aqp1ab2 in maturing oocytes, as observed in surrogate amphibian oocytes. […] To test this hypothesis, we carried out in vitro experiments in which the production of Avp by postvitellogenic ovarian explants in response to piscine single-chain recombinant […] evaluated by a custom made Avp enzyme-linked immunosorbent assay (ELISA) ( Supplementary Figure S3 ). To investigate the specificity of the rLh potential regulation, in these experiments we also tested the effect of single-chain recombinant follicle-stimulating hormone (rFsh). […] Pieces of the ovary at the […] stage (400-500 mg) were dissected from naturally spawning seabream females and placed in Petri dishes containing 75% Leivovitz L-15 culture medium with L-glutamine and 100 μg/ml gentamicin at pH 7.5. […] Control groups were treated with an equivalent volume of the cell culture medium used for […] production, or with 0.5% ethanol. After incubation, explants were frozen and stored at -80°C until Avp extraction and determination by ELISA. To determine the Avp levels in ovarian explants incubated in vitro, a competitive ELISA was developed using the specific anti-Avp antiserum and the synthetic Avp to create the standard curve ( Supplementary Figure S3 ). For this, polystyrene ELISA microtiter plates (F96 Maxisorp Nunc Immuno Plates; […] Ovarian explants were homogenized on ice with a glass dounce tissue homogenizer in water containing 0.25% glacial acetic acid in a proportion of 500 μl/100 mg tissue. After incubation of the homogenate at 100°C for 5 min, the samples were centrifuged a 10,000 × g for 5 min at 4°C, and the supernatant recovered in a new tube. […] Absorbance was read at 450 nm with a VICTOR3TM Multilabel Plate Reader (PerkinElmer, Inc.). […] The intra-assay coefficient of variation was 4.64% (calculated by assaying eight replicates of an ovarian sample at 50% of maximum binding on the same plate), whereas the inter-assay coefficient of variation was 8.35%.

[2] = system: X. laevis oocytes expressing the seabream Avpr1aa and Aqp1aa, Aqp1ab1 or Aqp1ab2 plus YwhazLb; assay: Swelling assay (osmotic water permeability, P f) of X. laevis oocytes expressing Avpr1aa and TSA1C aquaporins; assay type: cell-based
[3] = system: seabream ovarian follicles; assay: In vitro incubation of isolated seabream ovarian follicles (immunostaining, 3H2O uptake, co-immunoprecipitation); assay type: cell-based, gilthead seabream (Sparus aurata); conditions: for Avp-mediated increase in phosphorylation of Aqp1ab1 and Aqp1ab2 and binding of Aqp1ab2 to YwhazLb: 10 µM inhibitor plus 10 µM Avp; for Avp-induced differential localization of Aqp1ab1 and Aqp1ab2 in the oocyte microvilli: 10 µM inhibitor preincubated prior to 10 µM Avp
Description: To investigate the physiological significance of the Avp regulation of the […] channel trafficking in seabream oocytes, we determined the dynamics of the subcellular localization of endogenous Aqp1aa, Aqp1ab1, and Aqp1ab2, and their interactions with YwhazLa and -zLb proteins, after Avp treatment in vitro, using the Aqp1ab1- and Aqp1ab2-specific antisera and commercial mammalian YWHAZ antibodies specific for seabream YwhazLa/b or -zLb ([12]). For this, we incubated isolated seabream vitellogenic ovarian follicles with Avp, in the presence or absence of the seabream Avpr1aa and Avpr2aa antagonist TLV or the PKA inhibitor H89, while control follicles were exposed to DMSO vehicle alone ( Figure 8 ).
In other experiments, groups of fully-grown postvitellogenic ovarian follicles (n = 10), manually isolated from the ovary, were incubated with 10 µM Avp in the same culture medium as above, in the presence or absence of 10 µM of the receptor antagonist TLV, or with 0.1% DMSO (controls) for 6 h at 18°C. After incubation, follicles were fixed for immunofluorescence microscopy, frozen in liquid nitrogen and stored at -80°C for further protein extraction, or processed for water uptake assays using radiolabeled water as previously described ([12]).
Isolated ovarian follicles were processed for immunofluorescence microscopy as previously described ([65], [66]). Control sections were incubated with antibodies (1:400 dilution) preadsorbed with the corresponding peptides used for immunization (for aquaporin antibodies), or with the Avp or Oxt synthetic peptides. Secondary antibodies were sheep anti-rabbit IgG Cy3 (Merck #C2306) or goat anti-chicken IgY Alexa Fluor 488 (Invitrogen #A11039) at a 1:1,000 dilution. Sections were counterstained with DAPI (1:10,000), and mounted with Fluoromount™ Aqueous Mounting Medium (Merck #F4680). Immunofluorescence was observed and documented with a Zeiss Axio Imager Z1/Apotome fluorescent microscope (Carl Zeiss Corp.). Changes in Aqp1ab1 and Aqp1ab2 in the oocyte plasma membrane after Avp treatment were evaluated using the ImageJ software v.1.52o (https://imagej.nih.gov/ij/) as previously described ([12]).
X. laevis oocytes and seabream follicles (n = 10) were homogenized in the lysis buffer from the Pierce™ Crosslink Magnetic IP/Co-IP Kit (Pierce Thermo Fisher Scientific, #88805) with a bouncer on ice, and centrifuged at 14,000 × g for 1 min. An aliquot (10%) of the protein extract was collected as “input” and mixed with 2 × Laemmli sample buffer, whereas the remaining extract was incubated overnight at 4°C under constant agitation with magnetic beads previously coated with anti-Aqp1ab1 or anti-Aqp1ab2 antibodies. For rabbit primary antibodies, the immunoprecipitation was carried out using the kit indicated above, and final eluted proteins in 50 µl of elution buffer were mixed with 4 × Laemmli sample buffer supplemented with protease and phosphatase inhibitors. For chicken antibodies, the immunoprecipitation was performed using Dynabeads™ M-280 Tosylactivated (Invitrogen Thermo Fisher Scientific, #14203) following the manufacturer’s instructions. The input and immunoprecipitated samples were immunoblotted as indicated above.

[4] = system: X. laevis oocytes expressing the seabream Avpr2aa and Aqp1aa, Aqp1ab1 or Aqp1ab2 plus YwhazLb; assay: Swelling assay (osmotic water permeability, P f) of X. laevis oocytes expressing Avpr2aa and TSA1C aquaporins; assay type: cell-based
seabream Avpr2aa = assay: Activation of seabream Avpr2aa in transfected HEK293T cells (pCRE-luc / pSRE-luc reporters, Fluo-4 AM Ca2+); assay type: cell-based, gilthead seabream (Sparus aurata); conditions: for effect on Avpr2aa activation: antagonist 10^-12 to 10^-5 M before 10^-8 M Avp
seabream Oxtrb = seabream Oxtrb (Sparus aurata, UniProt R9WVY7); assay: Activation of seabream Oxtrb in transfected HEK293T cells (pCRE-luc / pSRE-luc reporters, Fluo-4 AM Ca2+); assay type: cell-based, gilthead seabream (Sparus aurata); conditions: for effect on Oxtrb activation: antagonist 10^-12 to 10^-5 M before 10^-8 M Oxt
seabream Avpr1aa = seabream Avpr1aa (Sparus aurata, UniProt R9X0I6); assay: Activation of seabream Avpr1aa in transfected HEK293T cells (pCRE-luc / pSRE-luc reporters, Fluo-4 AM Ca2+); assay type: cell-based, gilthead seabream (Sparus aurata); conditions: for IC50: antagonist 1 h before 10^-8 M Avp, HEK293T, read-out: IC50, inhibition of Avpr1aa activation
[5] = 10 µM Avp, co-immunoprecipitation and immunoblotting

Molecule: C[C@@H](O)[C@@]1(O)CC[C@H]2[C@@H]3CCC4=CC(=O)CC[C@]4(C)[C@H]3CC[C@@]21C [17,20β-P, 17α,20β-dihydroxypregn-4-en-3-one]
- increase in Avp synthesis in ovarian explants ([1]; 0.1 µg/ml, ~20 h): 3 fold

Molecule: CN1CCCC1CCn1cc(C2=C(c3c[nH]c4ccccc34)C(=O)NC2=O)c2ccccc21 (stereo not shown) [Bim-II, bisindolylmaleimide II]
- Avp-induced inhibition of P f ([2]; Avpr1aa+Aqp1aa oocytes preincubated with 10 µM inhibitor 1 h before 10 µM Avp): prevented

Molecule: O=S(=O)(NCCNC/C=C/c1ccc(Br)cc1)c1cccc2cnccc12 [H89]
- Avp-mediated increase in phosphorylation of Aqp1ab1 and Aqp1ab2 and binding of Aqp1ab2 to YwhazLb [3]: blocked
- Avp-induced differential localization of Aqp1ab1 and Aqp1ab2 in the oocyte microvilli [3]: prevented
- water permeability of follicles (3H2O uptake) in the presence of Avp plus inhibitor ([3]; not told): reduced
- positive effect of Avp on plasma membrane trafficking of wild-type Aqp1ab1 and Aqp1ab1-S156A [4]: equally abolished
- Avp-induced insertion of Aqp1ab1 or Aqp1ab2 into the oocyte plasma membrane / P f increase ([4]; Avpr2aa oocytes, 10 µM inhibitor 1 h before 10 µM Avp): prevented

Molecule: COc1cc(OC2CCN(C(C)=O)CC2)ccc1C(=O)N1CCC(N2C(=O)OCc3ccccc32)CC1 [L-371,257, 1-(1-[4-[(N-acetyl-4-piperidinyl)oxy]-2-methoxybenzoyl]piperidin-4-yl)-4H-3,1-benzoxazin-2(1H)-one]
- effect on Avpr2aa activation (seabream Avpr2aa): no effect

Molecule: C=C[C@]12CCC(=O)C=C1CC[C@H]1[C@@H]3CC[C@H](C(C)=O)[C@@]3(C)CC[C@@H]12 [OD 02-0, 10-ethenyl-19-norprogesterone]
- Avp synthesis in ovarian explants in the absence of 17,20β-P ([1]; 10 µM, ~20 h): not reproduced

Molecule: CC#C[C@]1(O)CC[C@H]2[C@@H]3CCC4=CC(=O)CCC4=C3[C@@H](c3ccc(N(C)C)cc3)C[C@@]21C [RU486]
- 17,20β-P-induced increase in Avp synthesis ([1]; 100 µM inhibitor with 0.1 µg/ml 17,20β-P): completely abolished

Molecule: COc1ccc(S(=O)(=O)N2c3ccc(Cl)cc3[C@](O)(c3ccccc3Cl)[C@@H]2C(=O)N2CCC[C@H]2C(N)=O)cc1OC [SR49059]
- effect on Oxtrb activation (seabream Oxtrb): not affected
- effect on Avpr2aa activation (seabream Avpr2aa): inhibited
- IC50 (seabream Avpr1aa): ~1 nM

Molecule: Cc1ccccc1C(=O)Nc1ccc(C(=O)N2CCCC(O)c3cc(Cl)ccc32)c(C)c1 (stereo not shown) [TLV, 7-Chloro-5-hydroxy-1-[2-methyl-4-(2-methylbenzoyl-amino)benzoyl]-2,3,4,5-tetrahydro-1H-1-benzazepine]
- effect on Oxtrb activation (seabream Oxtrb): not affected
- effect on Avpr2aa activation (seabream Avpr2aa): inhibited
- potency at blocking Avpr2aa relative to SR49059 (seabream Avpr2aa; antagonist before 10^-8 M Avp): ~ 10 times more potent
- water permeability of follicles (3H2O uptake) in the presence of Avp plus inhibitor ([3]; 10 µM Avp plus 10 µM inhibitor): reduced
- Avp-mediated increase in phosphorylation of Aqp1ab1 and Aqp1ab2 and binding of Aqp1ab2 to YwhazLb [3]: blocked
- Avp-induced differential localization of Aqp1ab1 and Aqp1ab2 in the oocyte microvilli [3]: prevented
- IC50 (seabream Avpr1aa): ~1 nM

Molecule: CYIQNCPRG-NH2 (ends and bridges not checked) [Avp]
- intracellular Ca2+ concentration ([Ca2+]i) (seabream Oxtrb; HEK293T cells expressing Oxtrb, Fluo-4 AM): only a slight increase
- EC50 (seabream Avpr2aa; Avp on Avpr2aa, HEK293T, read-out: approximate EC50 on cognate receptor): ~10 nM
- PKC activation (pSRE-luc) (seabream Avpr2aa; HEK293T cells expressing Avpr2aa): not activated
- pCRE-induced luciferase activity (cAMP) (seabream Avpr2aa; HEK293T cells expressing Avpr2aa, 10^-12 to 10^-5 M): potent dose-dependent response
- intracellular Ca2+ concentration ([Ca2+]i) (seabream Avpr2aa; HEK293T cells expressing Avpr2aa, Fluo-4 AM): not affected
- meiotic maturation or oocyte hydration ([3]; 10 µM Avp, 6 h, 18°C): did not induce
- phosphorylation of Aqp1ab1 [3, 5]: more phosphorylated
- phosphorylation of Aqp1ab2 [3, 5]: increased
- localization of Aqp1aa (follicular epithelium) ([3]; 10 µM Avp, immunofluorescence): did not appear to change
- localization of Aqp1ab1 immunoreactivity ([3]; 10 µM Avp, immunofluorescence): more concentrated in the most distal part of the microvilli
- localization of Aqp1ab2 channel ([3]; 10 µM Avp, immunofluorescence): localized in a more basal region of the microvilli
- water permeability of follicles (3H2O uptake) ([3]; not told): higher
- reduction of P f ([2]; oocytes expressing Avpr1aa + Aqp1aa, 10 µM Avp, 3 h): 80%
- oocyte P f triggered by FSK exposure ([2]; oocytes expressing Avpr1aa + Aqp1ab2 (+YwhazLb), 10 µM Avp, 10 µM FSK): did not affect
- pCRE-mediated luciferase activity (cAMP) (seabream Avpr1aa; HEK293T cells expressing Avpr1aa): did not induce measurable increases
- pSRE-induced luciferase activity (PKC activation) (seabream Avpr1aa; HEK293T cells expressing Avpr1aa, 10^-12 to 10^-5 M, 3 h): concentration-dependent increase
- intracellular Ca2+ concentration ([Ca2+]i) (seabream Avpr1aa; HEK293T cells expressing Avpr1aa, Fluo-4 AM): concentration-dependent increase
- P f ([4]; oocytes co-expressing Avpr2aa and Aqp1aa, 10 µM Avp): did not change
- increase in P f ([4]; oocytes expressing Avpr2aa + Aqp1ab1, 10 µM Avp): ~ 2 fold
- increase in P f ([4]; oocytes expressing Avpr2aa + Aqp1ab2+YwhazLb, without FSK pretreatment, 10 µM Avp): ~ 4 fold
